Results as given in article PMC12467433, “Isoniazid-Derived Hydrazones Featuring Piperazine/Piperidine Rings: Design, Synthesis, and Investigation of Antitubercular Activity” (Biomolecules, 2025).
In brackets after ≈: the same amount, converted by molar mass. Where two headings read alike, the source gives them in different places.

Experiments:
Mtb H37Rv = experiment: Microplate Alamar Blue Assay (MABA), Mtb H37Rv; assay type: cell-based, Mycobacterium tuberculosis; conditions: for MIC: MABA, one-week incubation
InhA = target: T1, InhA (Mycobacterium tuberculosis, UniProt P9WGR1); experiment: InhA inhibition (NADH oxidation at 340 nm, DDCoA substrate); assay type: biochemical; conditions: for inhibition at 50 µM: at 50 μM concentration, NI: No inhibition
T1 construct: made in house
T1 sequence (P9WGR1 whole entry, looked up): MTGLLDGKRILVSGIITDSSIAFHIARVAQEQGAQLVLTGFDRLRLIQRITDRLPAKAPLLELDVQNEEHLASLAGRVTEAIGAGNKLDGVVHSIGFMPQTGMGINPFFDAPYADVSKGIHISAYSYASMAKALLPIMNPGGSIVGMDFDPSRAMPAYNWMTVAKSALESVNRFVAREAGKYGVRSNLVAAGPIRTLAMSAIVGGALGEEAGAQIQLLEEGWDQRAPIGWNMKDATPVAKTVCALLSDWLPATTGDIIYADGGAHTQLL

[1] = MTT cytotoxicity assay, A549; assay type: cell-based; conditions: human, A549 cells, triplicate, read-out: Toxicity IC50
From the text: (§1) 2.2.2. Assay for Host Cytotoxicity Determination
(§2) The MTT (3-(4,5-dimethylthiazol-2-yl)-2,5-diphenyltetrazolium bromide) assay was applied to determine the cytotoxicity of the synthesized molecules against Human Embryonic Kidney cells (HEK 293) and adenocarcinomic human alveolar basal epithelial cells (A549) cell lines, obtained from the American Type Culture Collection (ATCC) with the accession numbers ATCC CRL-1573 and ATCC CCL-185, respectively. […] A vehicle control containing 1% DMSO in culture medium without any compound was included to account for any solvent-related effects. Cells were seeded at a density of 1 × 10^4 cells per well in a sterile 96-well microtiter plate and incubated for 24 h to allow attachment. Following this, the compounds were added in ten-fold serial dilutions ranging from 100 μM to 0.001 μM, and the plates were incubated for 48 h at 37 °C with 5% CO2.
(§3) After incubation, the medium was removed and replaced with 10 μL of MTT solution (5 mg/mL) in each well, followed by a 3 h incubation under the same conditions. The MTT reagent was then discarded, and 100 μL of DMSO was added to each well to solubilize the formazan crystals. Absorbance was measured at 580 nm using a Thermo Scientific Varioskan LUX microplate reader, with blanks subtracted from each value. All experiments were performed in three independent biological replicates, for every concentration tested. The IC50 values were calculated using GraphPad Prism 10.6.0 [28, 29].

[2] = MTT cytotoxicity assay, HEK 293; assay type: cell-based; conditions: human, HEK 293 cells, HEK 293, MTT, triplicate, read-out: Toxicity IC50
From the text: as §1, §2, §3

[3] = Mycobacterium tuberculosis, H37RV, 168 h

Row | SMILES | MIC (Mtb H37Rv; [3]) [µM] | inhibition at 50 µM (InhA) [%] | MIC50 (Mtb H37Rv; Mycobacterium tuberculosis) [µM] | IC50 at 48 h [1] [µM] | IC50 at 48 h [2] [µM] | MIC (Mtb H37Rv) [µM] | MIC50 (Mtb H37Rv) [µM] | IC50 (InhA; read-out: IC50 against InhA enzyme) [µM]
1 | Cc1ccc(N2CCN(c3ccc(C=NNC(=O)c4ccncc4)cc3)CC2)c(C)c1 [IP5, N′-(4-(4-(2,4-Dimethylphenyl)piperazin-1-yl)benzylidene)isonicotinohydrazide] | 50 (≈ 20.7 µg/mL) | 16 | – | – | – | – | – | –
2 | NNC(=O)c1ccncc1 [INH, isonicotinic acid hydrazide, reference compound] | 0.39 (≈ 0.0535 µg/mL) | – | 0.23 ± 0.04 (≈ 0.0315 µg/mL) | – | – | – | – | –
3 | O=C(NN=Cc1ccc(N2CCN(c3ccc(C(F)(F)F)cc3)CC2)cc1)c1ccncc1 [IP6, N′-(4-(4-(4-(Trifluoromethyl)phenyl)piperazin-1-yl)benzylidene)isonicotinohydrazide] | 12.5 (≈ 5.67 µg/mL) | 37 | – | – | – | – | – | –
4 | CCOC(=O)C1CCN(c2ccc(C=NNC(=O)c3ccncc3)cc2)CC1 [IP12, Ethyl 1-(4-((2-isonicotinoylhydrazono)methyl)phenyl)piperidine-4-carboxylate] | ≤ 0.78 | 17 | 0.47 ± 0.05 (≈ 0.179 µg/mL) | > 100 | > 100 | – | – | –
5 | NC(=O)C1CCN(c2ccc(C=NNC(=O)c3ccncc3)cc2)CC1 [IP13, 1-(4-((2-Isonicotinoylhydrazono)methyl)phenyl)piperidine-4-carboxamide] | ≤ 0.78 | < 10 | 0.53 ± 0.24 (≈ 0.186 µg/mL) | > 100 | > 100 | – | – | –
6 | O=C(NN=Cc1ccc(N2CCN(c3ccc(Br)cc3)CC2)cc1)c1ccncc1 [IP4, N′-(4-(4-(4-Bromophenyl)piperazin-1-yl)benzylidene)isonicotinohydrazide] | 100 (≈ 46.4 µg/mL) | < 10 | – | – | – | – | – | –
7 | CN1CCN(c2ccc(C=NNC(=O)c3ccncc3)cc2)CC1 [IP10, N′-(4-(4-Methylpiperazin-1-yl)benzylidene)isonicotinohydrazide] | ≤ 0.78 | 30 | 0.31 ± 0.04 (≈ 0.1 µg/mL) | > 100 | > 100 | – | – | –
8 | O=C(NN=Cc1ccc(N2CCN(c3ccccc3F)CC2)cc1)c1ccncc1 [IP2, N′-(4-(4-(2-Fluorophenyl)piperazin-1-yl)benzylidene)isonicotinohydrazide] | > 100 | 19 | – | – | – | >100 | – | –
9 | COc1ccc(N2CCN(c3ccc(C=NNC(=O)c4ccncc4)cc3)CC2)cc1 [IP7, N′-(4-(4-(4-Methoxyphenyl)piperazin-1-yl)benzylidene)isonicotinohydrazide] | ≤ 0.78 | 10 | 0.74 ± 0.1 (≈ 0.307 µg/mL) | – | – | – | – | –
10 | O=C(NN=Cc1ccc(N2CCN(c3ccccn3)CC2)cc1)c1ccncc1 [IP8, N′-(4-(4-(Pyridin-2-yl)piperazin-1-yl)benzylidene)isonicotinohydrazide] | ≤ 0.78 | < 10 | 0.31 ± 0.21 (≈ 0.12 µg/mL) | > 100 | > 100 | – | – | –
11 | O=C(NN=Cc1ccc(N2CCN(c3ccc(Cl)cc3)CC2)cc1)c1ccncc1 [IP3, N′-(4-(4-(4-Chlorophenyl)piperazin-1-yl)benzylidene)isonicotinohydrazide] | 50 (≈ 21 µg/mL) | 21 | – | – | – | – | – | –
12 | O=C(NN=Cc1ccc(N2CCN(c3ncccn3)CC2)cc1)c1ccncc1 [IP9, N′-(4-(4-(Pyrimidin-2-yl)piperazin-1-yl)benzylidene)isonicotinohydrazide] | ≤ 0.78 | < 10 | 0.79 ± 0.23 (≈ 0.306 µg/mL) | > 100 | > 100 | – | – | –
13 | O=C(NN=Cc1ccc(N2CCN(c3ccccc3)CC2)cc1)c1ccncc1 [IP1, N′-(4-(4-Phenylpiperazin-1-yl)benzylidene)isonicotinohydrazide] | 50 (≈ 19.3 µg/mL) | < 10 | – | – | – | – | – | –
14 | O=C(NN=Cc1ccc(N2CCN(C3CCCCC3)CC2)cc1)c1ccncc1 [IP11, N′-(4-(4-Cyclohexylpiperazin-1-yl)benzylidene)isonicotinohydrazide] | ≤ 0.78 | 81 | 0.29 ± 0.05 (≈ 0.114 µg/mL) | > 100 | > 100 | – | 0.29 (≈ 0.114 µg/mL) | 26.4 ± 3.97
